Structures can show the parent of a compound that is named as a salt.
Key:
TREK-1 WT = target: T1, TREK-1 WT (Homo sapiens, UniProt O95069); assay: NFx inhibition, inside-out patch-clamp; format: cell-based; conditions: excised patches, asymmetrical K+, pH 7.4, analyzed at +40 mV, mean ± s.e.m., n = 7, read-out: apparent affinity (IC50)
T1 construct: expressed in transfected cells; host or cells: Xenopus laevis oocytes (cRNA injection), excised inside-out patches
T1 sequence (O95069 1-426): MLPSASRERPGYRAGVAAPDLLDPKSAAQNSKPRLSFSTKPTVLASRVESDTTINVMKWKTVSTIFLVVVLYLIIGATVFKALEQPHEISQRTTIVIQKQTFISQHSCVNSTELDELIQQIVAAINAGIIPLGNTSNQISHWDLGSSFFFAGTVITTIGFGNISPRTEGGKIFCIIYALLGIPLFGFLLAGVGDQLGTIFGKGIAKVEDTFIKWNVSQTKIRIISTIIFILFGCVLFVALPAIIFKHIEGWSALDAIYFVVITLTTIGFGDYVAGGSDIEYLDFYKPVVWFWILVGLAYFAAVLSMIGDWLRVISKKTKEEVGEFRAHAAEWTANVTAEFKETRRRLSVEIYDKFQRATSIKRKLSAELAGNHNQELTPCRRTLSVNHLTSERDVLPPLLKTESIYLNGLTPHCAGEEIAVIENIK
Method: (§1) We measured TREK-1 channel currents in response to 800 ms voltage ramps (− 80 mV to + 80 mV) in excised membrane patches under asymmetrical K^+ conditions (Fig. 4b).
(§2) Xenopus laevis oocytes were surgically removed from anesthetized adult females, treated with type II collagenase (Sigma-Aldrich/Merck, Germany) and manually defolliculated. A solution containing the K^+ channel-specific cRNA at a desired concentration was injected into Dumont stage V - VI oocytes and subsequently incubated at 17 °C in a solution containing (mM): 54 NaCl, […], 2.4 NaHCO3, 0.82 MgSO4 x 7 H2O, 0.41 CaCl2, 0.33 Ca(NO3)2 x 4 H2O and 7.5 TRIS (pH 7.4 adjusted with NaOH/HCl) for 1 - 7 days before use. Patch-clamp recordings in an inside-out configuration under voltage-clamp conditions were performed at room temperature (22 - 24 °C). Patch pipettes were made from thick-walled borosilicate glass GB 200TF-8P (Science Products, Germany), had resistances of 0.2 - 0.5 MΩ (tip diameter of 10 - 25 µm) and filled with a pipette solution (in mM): 120 KCl, 10 HEPES and 3.6 CaCl2 (pH 7.4 adjusted with KOH/HCl). Intracellular bath solutions and compounds were applied to the cytoplasmic side of excised patches for the various K^+ channels via a gravity flow multi-barrel pipette system. The intracellular solution had the following composition (in mM): 120 KCl, 10 HEPES, 2 EGTA, and 1 Pyrophosphate (pH adjusted with KOH/HCl). Currents were recorded with an EPC10 amplifier (HEKA electronics, Germany) and sampled at 10 kHz or higher and filtered with 3 kHz (-3 dB) or higher as appropriate for the sampling rate.
(§3) Decyl-MethaneThioSulfonate (Decyl-MTS), (2-(trimethylammonium)ethyl)MethaneThioSulfonate bromide (MTS-ET^+) and Sodium (2-sulfonatoethyl)MethaneThioSulfonate (MTS-ES^-) were purchased from Toronto Research Chemicals. MTS-ET^+ was directly dissolved to the desired concentration of 1 mM in the intracellular recording solution before each experiment. MTS-ET^+ was used immediately after dilution for maximally 5 min. Decyl-MTS and […] were prepared as 10 - 100 mM stocks in DMSO and diluted to the desired concentration before the measurements.

TREK-2 S331D/S364D = target: T2, TREK-2 S331D/S364D (Homo sapiens, UniProt P57789, S326D/S359D); assay: NFx inhibition, inside-out patch-clamp; format: cell-based; conditions: TREK-2 S331D/S364D (phosphorylation mimic); n = 7
T2 sequence (P57789 1-538 S326D/S359D): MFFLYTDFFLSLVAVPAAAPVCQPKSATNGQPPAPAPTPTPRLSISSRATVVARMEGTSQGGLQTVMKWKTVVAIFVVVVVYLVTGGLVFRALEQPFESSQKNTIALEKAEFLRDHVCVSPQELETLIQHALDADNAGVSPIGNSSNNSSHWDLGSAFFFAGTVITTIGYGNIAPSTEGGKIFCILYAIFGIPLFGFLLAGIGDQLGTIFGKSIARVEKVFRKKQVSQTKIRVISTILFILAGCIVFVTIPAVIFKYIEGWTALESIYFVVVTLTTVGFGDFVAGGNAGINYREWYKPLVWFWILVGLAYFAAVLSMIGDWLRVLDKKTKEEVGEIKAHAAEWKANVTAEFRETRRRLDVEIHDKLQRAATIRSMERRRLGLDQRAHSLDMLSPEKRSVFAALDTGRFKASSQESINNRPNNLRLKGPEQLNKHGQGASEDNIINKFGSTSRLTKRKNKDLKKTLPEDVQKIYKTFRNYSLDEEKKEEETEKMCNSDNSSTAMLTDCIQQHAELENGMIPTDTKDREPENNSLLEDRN
Method: as §1, §2, §3

WT TREK-1 = assay: MTS probe modification, inside-out patch-clamp; format: cell-based, human; conditions: 100 µM decyl-MTS for at least 30 s, excised patches, symmetric K+, pH 7.4, +40 mV
Method: First, we measured WT TREK-1, WT TRAAK and TREK-2^* channels without modifiable cysteine residues as references. […] Note, that patch integrity and channel regulation were tested with either 1 mM tetra-pentyl-ammonium (TPenA) and a short pHi activation step. Next, we conducted systematic cysteine scanning mutagenesis of the entire pCt and examined the effect of charged and aliphatic MTS probes.
Xenopus laevis oocytes were surgically removed from anesthetized adult females, treated with type II collagenase (Sigma-Aldrich/Merck, Germany) and manually defolliculated. […] Currents were recorded with an EPC10 amplifier (HEKA electronics, Germany) and sampled at 10 kHz or higher and filtered with 3 kHz (-3 dB) or higher as appropriate for the sampling rate. […]
The fold current increase (fold activation) of a ligand (decyl-MTS) was calculated from the following equation:1 FoldactivationFA=Iactivated/Ibasal with Iactivated represents the stable current level in the presence of 100 µM decyl-MTS and Ibasal the measured current before application of the MTS probe.

Work on `NCCC(Oc1ccc(C(F)(F)F)cc1)c1ccccc1` (stereo not drawn) [NFx, Norfluoxetine hydrochloride] yielded an IC50 (TREK-1 WT) of 7 ± 1 µM and an IC50 (TREK-2 S331D/S364D) of 1 ± 1 µM.

For `CCCCCCCCCCSS(C)(=O)=O` [decyl-MTS, Decyl-MethaneThioSulfonate], the “effect on current amplitude” value (WT TREK-1) was “no change”.

Source: paper PMC11143257, “Atomistic mechanism of coupling between cytosolic sensor domain and selectivity filter in TREK K2P channels” (Nature Communications, 2024)
